Test results: ChEMBL document CHEMBL1201862, “PubChem BioAssay data set” (2004)
Activity calls are given as the source filed them.

Key:
NADPH oxidase 1 = NADPH oxidase 1 (Homo sapiens, UniProt Q9Y5S8); assay: Late-stage luminescence-based cell-based dose response assay to identify inhibitors of NADPH oxidase 1 (NOX1): Synthesized analogs.; assay type: functional
[1] = target: E3 ubiquitin-protein ligase Mdm2 (Homo sapiens, UniProt Q00987); assay: MDM2-luc reporter signal enhancers, multi-concentration potency testing, MDM2 ubiquitin-protein ligase inhibitor program, whole-cell format, luminescence detection, 384-well microplate (AID 1394); assay type: functional;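 further: MDM2 E3 inhibitors raise luminescence so EC50 is for signal enhancement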
[2] = target: Serine/threonine-protein phosphatase PP1-alpha catalytic subunit (Homo sapiens, UniProt P62136); assay: inhibition of protein phosphatase 1 activity – biochemical, fluorescence, dose response (AID 2394)
[3] = target: Mitochondrial peptide methionine sulfoxide reductase (Bos taurus, UniProt P54149); assay type: functional;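 further: absorbance read-out, biochemical high-throughput dose-response screen for MsrA inhibitors, confirmatory; recombinant bovine MsrA coupled to E. coli TrxB with NADPH and selenocystamine; potency is for inhibitors of MsrA activity on DMSO substrate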
Vero = assay: viability of Vero cells under compound – cytotoxicity control for flavivirus capping enzyme inhibitors (AID 588742); assay type: functional; conditions: Chlorocebus sabaeus
[4] = target: Heat shock protein HSP 90-alpha (Homo sapiens, UniProt P07900); assay: Luminescence-based dose response biochemical high throughput screening assay for inhibitors of the Heat Shock Protein 90 (HSP90). [Related pubchem assays: 1831 (Summary AID.), 1846 (Confirmation screen.), 1789 (Primary screen.)]
[5] = system: Streptococcus sp. 'group A'; assay: Streptococcus pyogenes SK(-)GAS viability under kanamycin – luminescence, BacTiterGlo, confirmation, counter-screen for streptokinase expression inhibitor project, dose response (AID 1900); assay type: functional, organism-based
[6] = NIH3T3 cell viability loss – ATP luminescence, mouse fibroblasts, counter-screen, dose response (AID 2010); assay type: functional, cell-based;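 further: cells exposed to compound for about 90 hours before reading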
[7] = HEK-293T viability loss after treatment – luminescence, T-cell screen hits, cytotoxicity control for TCR NF-kB inhibitor project, dose response (AID 489026); assay type: functional, cell-based;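 further: cells exposed to compound about 14 hours before the viability readout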
Streptococcus = assay: GAS UMAA2166 growth inhibition – luminescence, BacTiterGlo, counter-screen for streptokinase expression inhibitor project, dose response (AID 1915); assay type: functional, organism-based;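 further: potency for reduction of bacterial viability or growth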
[8] = microbe, parasite or virus in culture; assay type: functional; conditions: Mycobacterium tuberculosis
INS1 = assay: INS-1E survival protection against cytokine death – cell-based, luminescence, retest, dose response (AID 449756); assay type: functional; conditions: Rattus norvegicus;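 further: cell death triggered by IL-1 beta plus TNF-alpha plus IFN-gamma mixture; protective hits raise ATP signal compared with cytokine alone wells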
[9] = Trypanosoma cruzi growth suppression in host cells – NIH3T3 host cells, beta-gal luminescence, confirmation (AID 2044); assay type: functional, cell-based;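 further: intracellular parasites grown in NIH/3T3 mouse fibroblasts as host cells; luminescent beta-galactosidase reporter signal from transgenic T. cruzi replicating inside host cells; inhibitors lower the luminescence signal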
[10] = target: T1, Replicative DNA helicase DnaB (Mycobacterium tuberculosis, UniProt P9WMR3); assay: DnaB intein splicing inhibitors, dose response, biochemical, cell-free fluorescence (AID 449749); assay type: functional
T1 sequence (P9WMR3 whole entry): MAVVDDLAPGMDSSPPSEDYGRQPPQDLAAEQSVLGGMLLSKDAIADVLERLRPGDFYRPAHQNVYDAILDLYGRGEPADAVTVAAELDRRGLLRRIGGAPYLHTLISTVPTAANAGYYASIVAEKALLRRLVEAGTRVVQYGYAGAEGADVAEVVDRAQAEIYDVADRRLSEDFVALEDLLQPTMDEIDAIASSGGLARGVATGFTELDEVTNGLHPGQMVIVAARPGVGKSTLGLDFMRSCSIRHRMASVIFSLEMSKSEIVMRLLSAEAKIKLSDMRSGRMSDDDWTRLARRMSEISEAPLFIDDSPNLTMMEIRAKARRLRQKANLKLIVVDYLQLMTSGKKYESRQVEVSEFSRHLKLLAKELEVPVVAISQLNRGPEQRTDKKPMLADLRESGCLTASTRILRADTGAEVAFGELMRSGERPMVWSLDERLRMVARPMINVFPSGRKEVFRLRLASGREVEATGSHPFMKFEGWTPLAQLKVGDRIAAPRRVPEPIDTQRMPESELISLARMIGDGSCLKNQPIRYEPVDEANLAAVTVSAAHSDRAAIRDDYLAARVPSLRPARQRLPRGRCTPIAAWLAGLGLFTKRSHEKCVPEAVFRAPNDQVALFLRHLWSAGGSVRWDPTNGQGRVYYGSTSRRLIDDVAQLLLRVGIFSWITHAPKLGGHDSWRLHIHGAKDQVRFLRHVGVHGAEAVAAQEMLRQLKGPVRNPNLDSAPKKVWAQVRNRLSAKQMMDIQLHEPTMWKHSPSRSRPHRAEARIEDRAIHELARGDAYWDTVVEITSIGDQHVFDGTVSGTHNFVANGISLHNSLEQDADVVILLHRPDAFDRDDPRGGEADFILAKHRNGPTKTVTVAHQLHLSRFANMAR

[11] = target: Serine/threonine-protein phosphatase (Homo sapiens, UniProt Q9BPW0); assay: inhibition of protein phosphatase 5 activity – biochemical, fluorescence, dose response (AID 2395)
[12] = target: T2, Apoptotic protease-activating factor 1 (Homo sapiens, UniProt O14727); assay type: functional
T2 sequence (O14727 whole entry): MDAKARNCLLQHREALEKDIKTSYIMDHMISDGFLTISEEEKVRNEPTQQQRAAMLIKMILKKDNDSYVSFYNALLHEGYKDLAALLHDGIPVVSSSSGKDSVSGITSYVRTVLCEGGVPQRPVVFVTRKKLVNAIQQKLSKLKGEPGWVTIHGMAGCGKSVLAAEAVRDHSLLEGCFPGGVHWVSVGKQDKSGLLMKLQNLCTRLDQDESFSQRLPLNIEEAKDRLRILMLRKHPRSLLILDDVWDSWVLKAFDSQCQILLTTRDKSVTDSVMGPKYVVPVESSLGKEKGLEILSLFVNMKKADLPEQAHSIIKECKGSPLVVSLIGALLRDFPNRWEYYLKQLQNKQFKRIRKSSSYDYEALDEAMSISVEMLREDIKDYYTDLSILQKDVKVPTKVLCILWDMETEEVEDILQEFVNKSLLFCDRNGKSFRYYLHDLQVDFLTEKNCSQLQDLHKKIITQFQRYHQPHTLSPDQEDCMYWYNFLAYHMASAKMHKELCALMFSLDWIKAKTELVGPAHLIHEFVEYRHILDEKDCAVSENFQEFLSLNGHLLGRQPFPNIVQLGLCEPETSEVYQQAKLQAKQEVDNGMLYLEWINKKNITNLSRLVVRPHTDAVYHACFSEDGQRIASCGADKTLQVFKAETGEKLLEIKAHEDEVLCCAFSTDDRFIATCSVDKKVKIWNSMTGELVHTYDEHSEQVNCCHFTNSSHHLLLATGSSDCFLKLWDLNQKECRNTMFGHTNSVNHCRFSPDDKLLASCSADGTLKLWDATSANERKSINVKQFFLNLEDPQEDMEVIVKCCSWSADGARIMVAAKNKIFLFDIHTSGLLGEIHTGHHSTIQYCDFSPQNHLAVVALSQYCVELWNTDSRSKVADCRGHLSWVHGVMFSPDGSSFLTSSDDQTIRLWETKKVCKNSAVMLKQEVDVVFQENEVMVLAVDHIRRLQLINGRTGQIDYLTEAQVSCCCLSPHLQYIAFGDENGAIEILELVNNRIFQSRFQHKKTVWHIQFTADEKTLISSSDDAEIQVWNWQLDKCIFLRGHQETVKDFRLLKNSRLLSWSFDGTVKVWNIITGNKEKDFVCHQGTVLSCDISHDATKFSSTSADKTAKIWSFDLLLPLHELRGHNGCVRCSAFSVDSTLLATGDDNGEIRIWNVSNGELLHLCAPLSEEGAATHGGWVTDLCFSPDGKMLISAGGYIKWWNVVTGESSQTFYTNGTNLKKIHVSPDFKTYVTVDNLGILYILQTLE

Protein RecA = target: T3, Protein RecA (Mycobacterium tuberculosis, UniProt P9WHJ3); assay: Fluorescence Cell-Free Homogeneous Dose Retest to Identify Inhibitors of RecA-Intein Splicing Activity. [Related pubchem assays (depositor defined):AID2097, AID2223, AID489010, AID492950]; assay type: functional
T3 sequence (P9WHJ3 whole entry): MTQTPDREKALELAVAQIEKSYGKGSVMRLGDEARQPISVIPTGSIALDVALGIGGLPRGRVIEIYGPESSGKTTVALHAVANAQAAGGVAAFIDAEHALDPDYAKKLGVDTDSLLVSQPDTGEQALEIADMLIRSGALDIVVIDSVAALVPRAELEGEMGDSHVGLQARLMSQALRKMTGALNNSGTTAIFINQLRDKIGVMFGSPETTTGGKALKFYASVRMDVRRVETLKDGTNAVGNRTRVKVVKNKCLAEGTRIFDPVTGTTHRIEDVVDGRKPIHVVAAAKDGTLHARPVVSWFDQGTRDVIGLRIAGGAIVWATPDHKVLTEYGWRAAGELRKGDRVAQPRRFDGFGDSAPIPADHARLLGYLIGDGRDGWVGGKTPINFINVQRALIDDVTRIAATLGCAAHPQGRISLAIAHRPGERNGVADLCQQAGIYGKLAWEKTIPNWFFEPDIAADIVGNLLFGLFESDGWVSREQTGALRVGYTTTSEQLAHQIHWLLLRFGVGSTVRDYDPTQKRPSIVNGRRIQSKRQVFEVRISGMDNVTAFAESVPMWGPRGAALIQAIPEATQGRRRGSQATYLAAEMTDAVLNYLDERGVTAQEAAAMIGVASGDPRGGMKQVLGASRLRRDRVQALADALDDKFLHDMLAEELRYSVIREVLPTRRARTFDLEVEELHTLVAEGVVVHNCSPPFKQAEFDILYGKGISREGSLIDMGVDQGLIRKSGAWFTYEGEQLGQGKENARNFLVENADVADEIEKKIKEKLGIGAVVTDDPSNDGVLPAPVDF

[13] = target: Protein-tyrosine kinase 2-beta (Homo sapiens, UniProt Q14289);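 further: potency of inhibitors of PYK2 kinase phosphorylation of poly-GT substrate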
[14] = viability loss in Vero cells – cytotoxicity control for Vif-APOBEC3G degradation inhibitor project, dose response (AID 1117358); assay type: functional; conditions: Vero

Protein-tyrosine kinase 2-beta, sequence (Q14289 whole entry): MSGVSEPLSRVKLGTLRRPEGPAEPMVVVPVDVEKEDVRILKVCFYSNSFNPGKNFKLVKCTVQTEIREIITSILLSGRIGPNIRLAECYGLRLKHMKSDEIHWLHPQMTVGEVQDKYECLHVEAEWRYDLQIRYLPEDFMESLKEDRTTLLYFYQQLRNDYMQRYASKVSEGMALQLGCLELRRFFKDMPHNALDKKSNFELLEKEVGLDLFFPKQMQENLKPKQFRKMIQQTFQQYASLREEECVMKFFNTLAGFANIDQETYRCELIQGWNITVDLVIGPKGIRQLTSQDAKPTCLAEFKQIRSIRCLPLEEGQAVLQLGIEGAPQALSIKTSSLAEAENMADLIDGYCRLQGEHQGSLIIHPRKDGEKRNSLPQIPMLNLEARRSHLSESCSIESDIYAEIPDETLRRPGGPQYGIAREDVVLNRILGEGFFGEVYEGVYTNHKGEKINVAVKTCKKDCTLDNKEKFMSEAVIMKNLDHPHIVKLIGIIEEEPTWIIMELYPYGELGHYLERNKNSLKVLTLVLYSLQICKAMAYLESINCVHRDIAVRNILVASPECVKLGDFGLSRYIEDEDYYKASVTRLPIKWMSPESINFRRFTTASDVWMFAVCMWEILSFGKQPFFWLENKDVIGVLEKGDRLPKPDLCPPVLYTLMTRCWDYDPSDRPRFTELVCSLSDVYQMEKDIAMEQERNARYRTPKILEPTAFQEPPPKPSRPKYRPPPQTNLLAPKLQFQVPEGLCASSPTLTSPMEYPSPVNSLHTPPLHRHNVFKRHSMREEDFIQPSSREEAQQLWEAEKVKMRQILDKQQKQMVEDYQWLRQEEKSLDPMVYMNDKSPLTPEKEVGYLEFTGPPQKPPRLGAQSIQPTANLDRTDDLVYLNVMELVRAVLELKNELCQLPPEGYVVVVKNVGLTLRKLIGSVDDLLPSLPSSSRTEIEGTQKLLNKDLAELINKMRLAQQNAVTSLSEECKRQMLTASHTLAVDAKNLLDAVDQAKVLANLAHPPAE
E3 ubiquitin-protein ligase Mdm2, sequence (Q00987 whole entry): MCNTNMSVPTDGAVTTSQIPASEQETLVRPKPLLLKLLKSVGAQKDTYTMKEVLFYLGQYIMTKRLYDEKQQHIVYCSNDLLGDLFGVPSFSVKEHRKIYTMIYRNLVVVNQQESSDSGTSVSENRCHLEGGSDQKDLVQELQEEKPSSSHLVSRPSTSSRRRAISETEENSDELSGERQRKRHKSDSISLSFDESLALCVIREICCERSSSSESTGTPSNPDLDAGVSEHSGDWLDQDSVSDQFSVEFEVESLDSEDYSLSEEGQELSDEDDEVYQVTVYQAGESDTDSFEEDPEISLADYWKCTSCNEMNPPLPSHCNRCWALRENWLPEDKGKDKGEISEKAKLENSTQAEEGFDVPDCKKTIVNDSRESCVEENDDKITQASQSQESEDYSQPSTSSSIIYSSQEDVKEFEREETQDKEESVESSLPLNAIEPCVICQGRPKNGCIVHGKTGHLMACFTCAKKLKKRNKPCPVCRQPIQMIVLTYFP
Serine/threonine-protein phosphatase, sequence (Q9BPW0 whole entry): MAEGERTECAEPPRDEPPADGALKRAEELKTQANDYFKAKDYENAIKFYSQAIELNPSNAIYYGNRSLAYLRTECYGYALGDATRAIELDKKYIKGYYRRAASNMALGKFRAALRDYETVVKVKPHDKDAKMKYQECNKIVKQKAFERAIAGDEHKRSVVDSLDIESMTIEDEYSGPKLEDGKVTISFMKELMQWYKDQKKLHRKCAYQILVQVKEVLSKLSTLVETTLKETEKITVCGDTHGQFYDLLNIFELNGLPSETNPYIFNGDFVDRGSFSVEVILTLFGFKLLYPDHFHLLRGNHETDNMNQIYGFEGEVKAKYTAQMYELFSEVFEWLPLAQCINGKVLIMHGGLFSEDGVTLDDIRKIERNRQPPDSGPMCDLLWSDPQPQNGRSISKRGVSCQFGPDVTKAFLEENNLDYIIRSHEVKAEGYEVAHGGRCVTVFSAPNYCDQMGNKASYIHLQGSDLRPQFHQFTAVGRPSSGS
Mitochondrial peptide methionine sulfoxide reductase, sequence (P54149 whole entry): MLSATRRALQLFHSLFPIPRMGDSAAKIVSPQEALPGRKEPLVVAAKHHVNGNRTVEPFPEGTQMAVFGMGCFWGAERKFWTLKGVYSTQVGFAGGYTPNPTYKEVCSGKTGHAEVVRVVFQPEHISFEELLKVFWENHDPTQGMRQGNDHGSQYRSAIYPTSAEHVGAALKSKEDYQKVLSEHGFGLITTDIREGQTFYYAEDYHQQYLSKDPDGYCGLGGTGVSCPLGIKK
Serine/threonine-protein phosphatase PP1-alpha catalytic subunit, sequence (P62136 whole entry): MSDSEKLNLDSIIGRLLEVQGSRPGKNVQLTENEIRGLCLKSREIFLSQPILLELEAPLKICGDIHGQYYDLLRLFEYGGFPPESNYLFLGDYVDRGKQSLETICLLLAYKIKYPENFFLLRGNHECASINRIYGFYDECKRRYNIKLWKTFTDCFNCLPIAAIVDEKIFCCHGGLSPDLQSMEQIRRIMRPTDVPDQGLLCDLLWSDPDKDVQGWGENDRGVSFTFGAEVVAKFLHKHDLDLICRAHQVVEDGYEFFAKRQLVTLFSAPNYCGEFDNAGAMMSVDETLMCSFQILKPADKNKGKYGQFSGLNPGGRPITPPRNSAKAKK
NADPH oxidase 1, sequence (Q9Y5S8 whole entry): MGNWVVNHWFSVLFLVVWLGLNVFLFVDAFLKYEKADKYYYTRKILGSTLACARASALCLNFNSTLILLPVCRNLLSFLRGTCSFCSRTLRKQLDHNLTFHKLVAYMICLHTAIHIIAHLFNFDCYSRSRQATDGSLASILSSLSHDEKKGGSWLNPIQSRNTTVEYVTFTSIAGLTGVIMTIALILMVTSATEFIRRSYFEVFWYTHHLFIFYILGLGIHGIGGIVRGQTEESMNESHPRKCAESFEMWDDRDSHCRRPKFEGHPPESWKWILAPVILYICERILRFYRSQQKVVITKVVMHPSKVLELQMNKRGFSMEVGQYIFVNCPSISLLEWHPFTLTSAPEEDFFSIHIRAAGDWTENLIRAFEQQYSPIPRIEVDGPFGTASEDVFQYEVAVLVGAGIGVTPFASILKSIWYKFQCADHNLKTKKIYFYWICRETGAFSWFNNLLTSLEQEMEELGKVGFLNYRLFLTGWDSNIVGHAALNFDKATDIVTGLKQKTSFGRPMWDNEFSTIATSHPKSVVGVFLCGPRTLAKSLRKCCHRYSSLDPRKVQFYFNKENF

## O=C(/C=C/c1ccccc1)N1c2ccccc2Sc2ccc(C(F)(F)F)cc21
NADPH oxidase 1
  IC50: > 50 µM (not active)

## CCN(CC)C(=O)CN1CCN(c2ncccn2)CC1
[1]
  EC50: 16.1 µM (not active)

## Cc1ccccc1NC1=C/C(=N\S(=O)(=O)c2cccs2)c2ccccc2C1=O
[2]
  IC50: > 22.3 µM (not active)
[3]
  IC50: 692 µM (inactive)
Vero
  CC50: 4.33 µM (active)
[4]
  IC50: 0.438 µM (active)
[5]
  EC50: 0.701 µM (active)
[6]
  EC50: 1.95 µM (active)
[7]
  IC50: 0.44 µM (active)
Streptococcus
  EC50: 4.55 µM (active)
[8]
  CC50: 3.13 µM (active)
INS1
  AC50: 0.413 µM (active)
[9]
  EC50: 1.04 µM (active)
[10]
  AC50: > 120 µM (inactive)
[11]
  IC50: 1.83 µM (active)
[12]
  IC50: 0.335 µM (active)
Protein RecA
  EC50: 0.654 µM (active)
[13]
  IC50: > 69.5 µM (not active)

## COc1cc(C(=O)NCc2nnc(SCC(=O)Nc3nc4ccc(C)cc4s3)o2)cc(OC)c1OC
[14]
  CC50: > 40 µM (active)
